{
  "source": "patent US20190091174A1",
  "about": "“METHOD OF REDUCING SEIZURE TYPE E[…] A DRAVET PATIENT” (ZOGENIX INTERNATIONAL LIMITED, priority 2017, published 2019)",
  "key": {"[1]": {"system": "patients with Dravet syndrome", "conditions": "long-term fenfluramine treatment; cited from earlier work"}, "[2]": {"system": "patients with Dravet syndrome", "assay": "Study 1 (ZX008-1501/1502): Phase 3, double-blind, placebo-controlled, liquid fenfluramine formulation added to current antiepileptic drugs", "type": "in vivo, human", "conditions": "end of the T+M Period", "description": "The first 119 subjects to be randomized in both identical studies combined were analyzed and reported as Study 1 (FIG. 1), covered by a Statistical Analysis Plan (SAP).\nPrimary and key secondary endpoints in the Study 1 SAP were pre-determined. All patients were treated twice per day over a period of 14 weeks using an oral syringe to administer the formulation. The treatment period included a two-week titration period and a 12-week maintenance period.\nThe initial results of Study 1 are outlined below. The randomized, double blind, placebo controlled, Phase 3 study enrolled 119 patients across sites in the United States, Canada, Europe and Australia. The median age of patients was 8 years, the mean age of patients was 9 years (range, 2-18 years) (FIG. 2).\nPatients were titrated to their target dose over two weeks, and then remained at that fixed dose for 12 weeks. The mean baseline convulsive seizure frequency across the study groups was approximately 40 seizures per month. 110 (92%) patients completed the study (85% 0.8 mg/kg/day; 100% 0.2 mg/kg/day; 93% placebo). […]\nThe mean number of convulsive seizure free days, defined as a day for which diary data are available and no convulsive seizures have been reported, was determined for each treatment group during the Baseline and T+M Periods. […]"}},
  "data": [
    {"smiles": "CCNC(C)Cc1cccc(C(F)(F)F)c1", "note": "(racemic) [Fenfluramine, 3-trifluoromethyl-N-ethylamphetamine]", "values": [
      {"measurement": "heart valve defects monitored by echocardiography", "setting": "[1]", "value": "No clinically relevant defects"},
      {"measurement": "incidence of all types of seizures", "setting": "[1]", "value": "effectively reduced the incidence of all types of seizures"},
      {"measurement": "seizure-free condition, share of test subjects", "setting": "[1]", "value": 66.6, "unit": "%"},
      {"measurement": "reduction from Baseline in non-convulsive seizures (all types), % [SD]", "setting": "[2]; 0.2 mg/kg/day", "value": "9.7% (140.46)"},
      {"measurement": "reduction from Baseline in non-convulsive seizures (all types), % [SD]", "setting": "[2]; 0.8 mg/kg/day", "value": "59.1% (40.14)"}
    ]}
  ]
}
